Laboratory results reported in patent EP4752152A1, “STEROID COMPOUND, AND PREPARATION METHOD THEREFOR AND USE THEREOF” (Cholesgen (Shanghai) Co.Ltd., priority 2023, dated 2025).

Test system: SREBP pathway
Test: SREBP luciferase reporter gene system (SRE-luciferase assay)
Assay type: cell-based, human
Conditions: Homo sapiens, Huh-7, 16 h, Huh-7/SRE-luc cells, sterol-deficient medium, 0.01-10 µM
In short: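 Readout was SRE-driven luciferase normalised to GFP fluorescence in lysates of stably transfected Huh-7/SRE-luc hepatoma cells. Compounds (0.01, 0.03, 0.1, 0.3, 1.0, 3.0, 10 µM; DMSO control) were applied for 16 h in sterol-depleted medium with 2 µM lovastatin and 10 µM mevalonate; IC50 from variable-slope fit.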

Row | Compound | IC50 [µM]
1 | C[C@H](CCCC(O)C1CC2CCC1C2)[C@H]1CC[C@H]2[C@H]3[C@H](CC[C@]12C)[C@@]1(C)CC[C@H](O)[C@H](O)[C@@H]1CC3(F)F (stereo partly drawn) [Compound 213, (1R,3aS,3bS,5aR,6R,7 S,9aR,9bS,11aR)-1-[(2R)-6-(Bicyclo[2.2.1]heptan-2-yl)-6-hydroxyhexan-2-yl]-4,4-difluoro-9a,11a-dimethylhexadecahyd ro-1H-cyclopenta[1,2-a]phenanthrene-6,7-diol] | 0.569
2 | COc1cc(F)nc(OC)c1C(O)CCC[C@@H](C)[C@H]1CC[C@H]2[C@H]3[C@H](CC[C@]12C)[C@@]1(C)CC[C@H](O)[C@H](O)[C@@H]1CC3(F)F (stereo partly drawn) [Compound 214, (1R,3aS,3bS,5aR,6R,7S,9aR,9bS,11aR)-4,4-difluoro-1-[(2R)-6-(6-fluoro-2,4-dimethoxypyridin-3-yl)-6-hydroxyhexan-2-yl]-9a,11a-dimethylhexadecahydro-1H-cyclopenta[1,2-a]phenanthrene-6,7-diol] | 0.183
3 | C[C@H](CCCC(O)c1[nH]ncc1F)[C@H]1CC[C@H]2[C@H]3[C@H](CC[C@]12C)[C@@]1(C)CC[C@H](O)[C@H](O)[C@@H]1CC3(F)F (stereo partly drawn) [Compound 237, (1R,3aS,3bS,5aR,6R,7S,9aR,9bS,11aR)-4,4-difluoro-1-[(2R)-6-(4-fluoro-2H-pyrazol-3-yl)-6-hydroxyhexan-2-yl]-9a,11a-dimethylhexadecahydro-1H-cyclopenta[1,2-a]phenanthrene-6,7-diol] | 0.726
4 | C[C@H](CCC[C@@H](O)c1cccc2c1cnn2C)[C@H]1CC[C@H]2C3=C(F)C[C@H]4[C@@H](O)[C@@H](O)CC[C@]4(C)[C@H]3CC[C@]12C [Compound 253, (1R,3aR,5aR,6R,7S,9aR,9bR,11aR)-4-fluoro-1-[(2R,6R)-6-hydroxy-6-(1-methylindazol-4-yl)hexan-2-yl]-9a,11a-dimethyl-2,3,3a,5,5a,6,7,8,9,9a,9b,10,11,11a-tetradecahydro-1H-cyclopenta[1,2-a]phenanthrene-6,7-diol] | 0.016
5 | C[C@H](CCCC(O)c1nc2c(s1)CCOC2)[C@H]1CC[C@H]2[C@H]3[C@H](CC[C@]12C)[C@@]1(C)CC[C@H](O)[C@H](O)[C@@H]1CC3(F)F (stereo partly drawn) [Compound 257, (1R,3aS,3bS,5aR,6R,7 S,9aR,9bS,11aR)-1-[(2R)-6-(6,7-Dihydro-4H-pyrano[3,4-d][1,3]thiazol-2-yl)-6-hydroxyhexan-2-yl]-4,4-difluoro-9a,11a-dimethylhexadecahyd ro-1H-cyclopenta[1,2-a]phenanthrene-6,7-diol] | 0.154
6 | COc1c(C(O)CCC[C@@H](C)[C@H]2CC[C@H]3[C@H]4[C@H](CC[C@]23C)[C@@]2(C)CC[C@H](O)[C@H](O)[C@@H]2CC4(F)F)ccc[n+]1[O-] (stereo partly drawn) [Compound 267, 3-[(5R)-5-[(1R,3aS,3bS,5aR,6R,7S,9aR,9bS,11aR)-4,4-difluoro-6,7-dihydroxy-9a,11a-dimethylhexadecahydro-1H-cyclopenta[1,2-a]phenanthren-1-yl]-1-hydroxyhexyl]-2-methoxypyridine-1-oxide] | 0.424
7 | C[C@H](CCCC(O)c1cccc2cn[nH]c12)[C@H]1CC[C@H]2C3=C(F)C[C@H]4[C@@H](O)[C@@H](O)CC[C@]4(C)[C@H]3CC[C@]12C (stereo partly drawn) [Compound 270, (1R,3aR,5aR,6R,7S,9aR,9bR,11aR)-4-fluoro-1-[(2R)-6-hydroxy-6-(1H-indazol-7-yl)hexan-2-yl]-9a,11a-dimethyl-2,3,3a,5,5a,6,7,8,9,9a,9b,10,11,11a-tetradecahydro-1H-cyclopenta[1,2-a]phenanthrene-6,7-diol] | 0.259
8 | C[C@H](CCCC(O)c1cccc2nnn(C)c12)[C@H]1CC[C@H]2[C@H]3[C@H](CC[C@]12C)[C@@]1(C)CC[C@H](O)[C@H](O)[C@@H]1CC3(F)F (stereo partly drawn) [Compound 271, (1R,3aS,3bS,5aR,6R,7 S,9aR,9bS,11aR)-4,4-Difluoro-1-[(2R)-6-hydroxy-6-(3-methylbenzo[d][1,2,3]triazol-4-yl)hexan-2-yl]-9a,11a-dimethylhexadecahyd ro-1H-cyclopenta[1,2-a]phenanthrene-6,7-diol] | 0.207
9 | C[C@H](CCCC(O)c1cncc2c1cnn2C)[C@H]1CC[C@H]2[C@H]3[C@H](CC[C@]12C)[C@@]1(C)CC[C@H](O)[C@H](O)[C@@H]1CC3(F)F (stereo partly drawn) [Compound 275, (1R,3aS,3bS,5aR,6R,7 S,9aR,9bS,11aR)-4,4-Difluoro-1-[(2R)-6-hydroxy-6-(1-methylpyrazolo[3,4-c]pyridin-4-yl)hexan-2-yl]-9a,11a-dimethylhexadecahyd ro-1H-cyclopenta[1,2-a]phenanthrene-6,7-diol] | 0.26
10 | C[C@H](CCCC(O)c1ccc(F)nc1O)[C@H]1CC[C@H]2[C@H]3[C@H](CC[C@]12C)[C@@]1(C)CC[C@H](O)[C@H](O)[C@@H]1CC3(F)F (stereo partly drawn) [Compound 276, (1R,3aS,3bS,5aR,6R,7S,9aR,9bS,11aR)-4,4-difluoro-1-[(2R)-6-(6-fluoro-2-hydroxypyridin-3-yl)-6-hydroxyhexan-2-yl]-9a,11a-dimethylhexadecahydro-1H-cyclopenta[1,2-a]phenanthrene-6,7-diol] | 0.925
11 | C[C@H](CCCC(O)c1ccc(F)nc1OCc1ccccc1)[C@H]1CC[C@H]2[C@H]3[C@H](CC[C@]12C)[C@@]1(C)CC[C@H](O)[C@H](O)[C@@H]1CC3(F)F (stereo partly drawn) [Compound 281, (1R,3aS,3bS,5aR,6R,7S,9aR,9bS,11aR)-1-[(2R)-6-[2-(benzyloxy)-6-fluoropyridin-3-yl]-6-hydroxyhexan-2-yl]-4,4-difluoro-9a,11a-dimethylhexadecahydro-1H-cyclopenta[1,2-a]phenanthrene-6,7-diol] | 0.479
12 | C[C@H](CCCC(O)c1cccc2nn[nH]c12)[C@H]1CC[C@H]2[C@H]3[C@H](CC[C@]12C)[C@@]1(C)CC[C@H](O)[C@H](O)[C@@H]1CC3(F)F (stereo partly drawn) [Compound 282, (1R,3aS,3bS,5aR,6R,7 S,9aR,9bS,11aR)-4,4-Difluoro-1-[(2R)-6-hydroxy-6-(3H-benzo[d][1,2,3]triazol-4-yl)hexan-2-yl]-9a,11a-dimethylhexadecahydro-1H-cyclopenta[1,2-a]phenanthrene-6,7-diol] | 0.389
13 | C[C@H](CCCC(O)c1cnc2c(c1)OC(F)(F)O2)[C@H]1CC[C@H]2[C@H]3[C@H](CC[C@]12C)[C@@]1(C)CC[C@H](O)[C@H](O)[C@@H]1CC3(F)F (stereo partly drawn) [Compound 284, (1R,3aS,3bS,5aR,6R,7 S,9aR,9bS,11aR)-1-[(2R)-6-(2,2-Difluoro[1,3]dioxolo[4,5-b]pyridin-6-yl)-6-hydroxyhexan-2-yl]-4,4-difluoro-9a,11a-dimethylhexadecahydro-1H-cyclopenta[1,2-a]phenanthrene-6,7-diol] | 0.309
14 | C[C@H](CCC[C@H](O)c1nc2ccccc2n1C)[C@H]1CC[C@H]2[C@H]3[C@H](CC[C@]12C)[C@@]1(C)CC[C@H](O)[C@H](O)[C@@H]1CC3(F)F [Compound 306, (1R,3aS,3bS,5aR,6R,7S,9aR,9bS,11aR)-4,4-difluoro-1-[(2R,6S)-6-hydroxy-6-(1-methylbenzo[d]imidazol-2-yl)hexan-2-yl]-9a,11a-dimethylhexadecahydro-1H-cyclopenta[1,2-a]phenanthrene-6,7-diol] | 0.121
15 | COc1nc(F)ccc1C(C)(O)CCC[C@@H](C)[C@H]1CC[C@H]2[C@H]3[C@H](CC[C@]12C)[C@@]1(C)CC[C@H](O)[C@H](O)[C@@H]1CC3(F)F (stereo partly drawn) [Compound 308, (1R,3aS,3bS,5aR,6R,7S,9aR,9bS,11aR)-4,4-difluoro-1-[(2R)-6-(6-fluoro-2-methoxypyridin-3-yl)-6-hydroxyheptan-2-yl]-9a,11a-dimethylhexadecahydro-1H-cyclopenta[1,2-a]phenanthrene-6,7-diol] | 0.112
16 | COc1nc(F)ccc1[C@@](C)(O)CCC[C@@H](C)[C@H]1CC[C@H]2[C@H]3[C@H](CC[C@]12C)[C@@]1(C)CC[C@H](O)[C@H](O)[C@@H]1CC3(F)F [Compound 309, (1R,3aS,3bS,5aR,6R,7S,9aR,9bS,11aR)-4,4-difluoro-1-[(2R,6S)-6-(6-fluoro-2-methoxypyridin-3-yl)-6-hydroxyheptan-2-yl]-9a,11a-dimethylhexadecahydro-1H-cyclopenta[1,2-a]phenanthrene-6,7-diol] | 0.143
17 | COc1nc(F)ccc1[C@](C)(O)CCC[C@@H](C)[C@H]1CC[C@H]2[C@H]3[C@H](CC[C@]12C)[C@@]1(C)CC[C@H](O)[C@H](O)[C@@H]1CC3(F)F [Compound 310, (1R,3aS,3bS,5aR,6R,7S,9aR,9bS,11aR)-4,4-difluoro-1-[(2R,6R)-6-(6-fluoro-2-methoxypyridin-3-yl)-6-hydroxyheptan-2-yl]-9a,11a-dimethylhexadecahydro-1H-cyclopenta[1,2-a]phenanthrene-6,7-diol] | 0.209
18 | COc1nc(F)ccc1[C@@H](O)CCC[C@@H](C)[C@H]1CC[C@H]2[C@H]3[C@H](CC[C@]12C)[C@@]1(C)CC[C@H](O)C[C@@H]1CC3(F)F [Compound 312, (1R,3aS,3bR,5aR,7S,9aS,9bS,11aR)-4,4-difluoro-1-[(2R,6S)-6-(6-fluoro-2-methoxypyridin-3-yl)-6-hydroxyhexan-2-yl]-9a,11a-dimethylhexadecahydro-1H-cyclopenta[1,2-a]phenanthren-7-ol] | 0.276
19 | C[C@H](CCC[C@H](O)c1cc2ccccc2o1)[C@H]1CC[C@H]2[C@H]3[C@H](CC[C@]12C)[C@@]1(C)CC[C@H](O)[C@H](O)[C@@H]1CC3(F)F [Compound 316, (1R,3aS,3bS,5aR,6R,7S,9aR,9bS,11aR)-1-[(2R,6S)-6-(1-benzofuran-2-yl)-6-hydroxyhexan-2-yl]-4,4-difluoro-9a,11a-dimethylhexadecahydro-1H-cyclopenta[1,2-a]phenanthrene-6,7-diol] | 0.145
20 | C[C@H](CCC[C@H](O)c1nc2cnccc2n1C)[C@H]1CC[C@H]2[C@H]3[C@H](CC[C@]12C)[C@@]1(C)CC[C@H](O)[C@H](O)[C@@H]1CC3(F)F [Compound 318, (1R,3aS,3bS,5aR,6R,7S,9aR,9bS,11aR)-4,4-difluoro-1-[(2R,6S)-6-hydroxy-6-(1-methylimidazo[5,4-c]pyridin-2-yl)hexan-2-yl]-9a,11a-dimethylhexadecahydro-1H-cyclopenta[1,2-a]phenanthrene-6,7-diol] | 0.296
